The numbers were not newly measured in US9928346B1, “Test panel to measure blood neurotoxin levels in prematernal women and for the general public in relation to mental disorders of the aging” (priority 2016, dated 2018), which cites them from elsewhere.

Where two headings read alike, the source gives them in different places.

The conditions of series [1]: for Minimum Risk Level: blood levels.
For series [2] the following is noted: orally consumed, toxicology assessment.
For series [3] the following is noted: for an average man.

As for `[Al]` [Aluminum, aluminum], the “absorption by the intestines” value (digested aluminum) is reported as 1%. In addition, where the note is “intravenous injection from a vaccine”, the “absorbed in the blood” value is given as 100%. Besides, the “Minimum Risk Level” value is reported as under 6 microgram per liter in series [1] and 1.0 mg Al/kg body weight/day in series [2]. Further, the “MRL for blood content” value in series [1] (recommended by Mayo Clinic and Micro Trace Minerals diagnostic centers) is under 6 microgram/liter.
For `[AsH3]` [Arsenic, arsenic], the “Minimum Risk Level” value in series [1] was under 10 microgram per liter.
On to `[Pb]` [Lead, lead], for which the “Minimum Risk Level” value in series [1] is reported as under 50 microgram per liter.
For `[Mn+2]` [Manganese, manganese], in series [1], the “Minimum Risk Level” value is given as under 18 microgram per liter. Also, in series [3], the tentative dietary suggestions entry is on record as “about 10 mg/day”.
